Test results reported in ChEMBL document CHEMBL3272028, “Some substituted naphthazarins as potential anticancer agents” (1976).
Activity calls are given as the source filed them. No cut-off for these calls is given here.

Experiments:
P388 [1] = assay: Antitumor activity against mouse P388 cells allografted in mouse at 50 mg/kg relative to control; assay type: functional
L1210 = assay: Antitumor activity against mouse L1210 cells allografted in mouse; assay type: functional, cell-based
P388 [2] = assay: Antitumor activity against mouse P388 cells allografted in mouse at 400 mg/kg relative to control; assay type: functional
[3] = Growth inhibition of human 9KB cells at 1.8 ug/ml relative to control; assay type: functional; details: read-out: GI
P388 [4] = assay: Antitumor activity against mouse P388 cells allografted in mouse; assay type: functional, cell-based

SMILES	T/C (P388 [1])	Activity (L1210)	T/C (P388 [2])	inhibition of growth at 1.8 µg/mL [3] [%]	Activity (P388 [4])
CC1=C(C)C(=O)c2c(OC(=O)c3ccccc3)ccc(OC(=O)c3ccccc3)c2C1=O	128	inactive	–	–	–
CC(=O)Oc1ccc(OC(C)=O)c2c1CC(C)=C(C)C2	–	inactive	126	–	–
CC(=O)Oc1ccc(OC(C)=O)c2c1C(=O)C=CC2=O	–	inactive	–	50	inactive
